In US20260055089A1, “NOVEL SUBSTITUTED BENZOTHIOPHENE-6-CARBOXYLIC ACID DERIVATIVES, PROCESSES FOR THEIR PREPARATION AND THERAPEUTIC USES THEREOF” (SANOFI, priority 2022, published 2026):

Biological target: T1, ERα (Homo sapiens, UniProt P03372)
T1 construct: host or cells: MCF7
T1 sequence (P03372 1-595): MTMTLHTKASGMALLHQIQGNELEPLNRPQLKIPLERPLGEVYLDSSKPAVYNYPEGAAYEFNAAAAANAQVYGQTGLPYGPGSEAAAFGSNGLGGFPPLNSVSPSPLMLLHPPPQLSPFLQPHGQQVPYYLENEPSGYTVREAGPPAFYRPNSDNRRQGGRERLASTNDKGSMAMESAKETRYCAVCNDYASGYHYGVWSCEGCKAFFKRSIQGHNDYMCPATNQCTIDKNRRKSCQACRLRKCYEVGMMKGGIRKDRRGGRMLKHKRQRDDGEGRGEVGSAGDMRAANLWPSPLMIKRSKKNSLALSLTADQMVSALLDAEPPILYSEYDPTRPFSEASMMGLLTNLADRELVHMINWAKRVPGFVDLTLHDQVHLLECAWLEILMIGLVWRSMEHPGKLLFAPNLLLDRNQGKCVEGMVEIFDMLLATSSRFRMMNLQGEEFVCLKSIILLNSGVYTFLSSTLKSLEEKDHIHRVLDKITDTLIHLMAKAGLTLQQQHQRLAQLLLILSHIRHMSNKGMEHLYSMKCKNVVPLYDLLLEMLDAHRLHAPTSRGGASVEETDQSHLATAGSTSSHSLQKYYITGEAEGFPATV
Test: Estrogen receptor degradation activity: breast cancer cell ERα in cell western assay
Format: cell-based
Settings: MCF7 cells; for % Degradation At 0.3 μM: 4 hours, relative to fulvestrant 0.1 μM positive control; for DC50: 4 hours post compound addition, concentration which degrades 50% of the estrogen receptor, read-out: Degradation IC50
Protocol: Test: Estrogen Receptor Degradation Activity
Said test involves measuring the in vitro degradation activity of the compounds of the table 1.
The measurements of the degradation activities were made using a breast cancer cell ERα in cell western assay as described hereunder.
MCF7 cells (ATCC) were seeded in 384 wells microplate (collagen coated) at a concentration of 10000 cells/30 μL per well in red phenol free MEM alpha medium (invitrogen) containing 5% charcoal dextran striped FBS. The following day, 9 points serial 1:5 dilution of each compound was added to the cells in 2.5 μL at final concentrations ranging from 0.3-0.0000018 μM (in table 2), or 0.1 μM for fulvestrant (using as positive control). At 4 hours post compound addition the cells were fixed by adding 25 μL of formalin (final concentration 5% formalin containing 0.1% triton) for 10 minutes at RT and then washed twice with PBS. Then, 50 μL of LI-COR blocking buffer containing 0.1% Triton was added to plate for 30 minutes at RT. LI-COR blocking buffer was removed and cells were incubated overnight at cold room with 50 μL anti-ER rabbit monoclonal antibody (Thermo scientific MA1-39540) diluted at 1:1000 in LI-COR blocking buffer containing 0.1% tween-20. Wells which were treated with blocking buffer but no antibody were used as background control. Wells were washed twice with PBS (0.1% tween-20) and incubated at 37° C. for 60 minutes in LI-COR (0.1% tween-20) containing goat anti-rabbit antibody Alexa 488 (1:1000) and Syto-64 a DNA dye (2 μM final concentration). Cells were then washed 3 times in PBS and scanned in ACUMEN explorer (TTP-Labtech). Integrated intensities in the green fluorescence and red fluorescence were measured to determine the levels of ERα and DNA respectively.
The degradation activity with respect to estrogen receptors in this test is given by the concentration which degrades 50% of the estrogen receptor (or ICso) in nM.
The % of ERα levels decrease were determined as follows: % inhibition=100*(1−(sample−fulvestrant:DMSO−fulvestrant)).

Structure (SMILES) | % Degradation At 0.3 μM [%] | DC50 [nM]
CC(F)(F)c1cc(F)ccc1-c1sc2cc(C(=O)O)ccc2c1Oc1ccc(OC2CN(CCCF)C2)cc1 [Compound 2, 2-(2-(1,1-difluoroethyl)-4-fluorophenyl)-3-(4-((1-(3-fluoropropyl)azetidin-3-yl)oxy)phenoxy)benzo[b]thiophene-6-carboxylic acid] | 93 | 0.9
CC(F)(F)c1cc(F)ccc1-c1sc2cc(C(=O)O)ccc2c1Oc1ccc(NC2CN(CCCF)C2)cc1.Cl [Compound 1, 2-(2-(1,1-difluoroethyl)-4-fluorophenyl)-3-(4-((1-(3-fluoropropyl)azetidin-3-yl)amino)phenoxy)benzo[b]thiophene-6-carboxylic acid, hydrochloride] | 92 | 2
CC(F)(F)c1cc(F)ccc1-c1sc2cc(C(=O)O)ccc2c1Oc1ccc(O[C@H]2CCN(CCCF)C2)cc1 [Compound 3, (S)-2-(2-(1,1-difluoroethyl)-4-fluorophenyl)-3-(4-((1-(3-fluoropropyl)pyrrolidin-3-yl)oxy)phenoxy)benzo[b]thiophene-6-carboxylic acid] | 85 | 5
